According to ChEMBL document CHEMBL5653631, “A Potent and Selective ULK1 Inhibitor Suppresses Autophagy and Sensitizes Cancer Cells to Nutrient Stress” (iScience, 2018):

Legend:
[1] = target: MAP kinase-activated protein kinase 3 (Homo sapiens) (UniProt Q16644); test: Inhibition of human recombinant MAPKAPK3 at 40 nM in presence of ATP by radiometric assay relative to control
[2] = target: Dual specificity protein kinase CLK2 (Homo sapiens) (UniProt P49760); test: Inhibition of human recombinant CLK2 at 40 nM related to control ULK1
Dual specificity protein kinase CLK2 (Homo sapiens), sequence (P49760 whole entry, looked up): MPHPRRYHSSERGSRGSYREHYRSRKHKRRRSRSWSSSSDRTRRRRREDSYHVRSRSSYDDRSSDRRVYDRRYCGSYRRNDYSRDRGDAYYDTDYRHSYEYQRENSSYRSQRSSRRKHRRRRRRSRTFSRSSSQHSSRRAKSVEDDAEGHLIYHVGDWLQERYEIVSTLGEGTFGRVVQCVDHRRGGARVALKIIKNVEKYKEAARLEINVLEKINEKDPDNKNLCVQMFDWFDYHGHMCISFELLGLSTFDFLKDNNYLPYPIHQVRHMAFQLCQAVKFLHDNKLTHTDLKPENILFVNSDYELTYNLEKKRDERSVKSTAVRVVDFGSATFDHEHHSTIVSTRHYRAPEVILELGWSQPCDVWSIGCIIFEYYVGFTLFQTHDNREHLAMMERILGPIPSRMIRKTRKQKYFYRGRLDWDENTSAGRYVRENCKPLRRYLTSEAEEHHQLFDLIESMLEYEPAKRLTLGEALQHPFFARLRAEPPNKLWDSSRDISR

[3] = target: Homeodomain-interacting protein kinase 3 (Homo sapiens) (UniProt Q9H422); test: Inhibition of human recombinant HIPK3 at 40 nM related to control ULK1
Homeodomain-interacting protein kinase 3 (Homo sapiens), sequence (Q9H422 whole entry, looked up): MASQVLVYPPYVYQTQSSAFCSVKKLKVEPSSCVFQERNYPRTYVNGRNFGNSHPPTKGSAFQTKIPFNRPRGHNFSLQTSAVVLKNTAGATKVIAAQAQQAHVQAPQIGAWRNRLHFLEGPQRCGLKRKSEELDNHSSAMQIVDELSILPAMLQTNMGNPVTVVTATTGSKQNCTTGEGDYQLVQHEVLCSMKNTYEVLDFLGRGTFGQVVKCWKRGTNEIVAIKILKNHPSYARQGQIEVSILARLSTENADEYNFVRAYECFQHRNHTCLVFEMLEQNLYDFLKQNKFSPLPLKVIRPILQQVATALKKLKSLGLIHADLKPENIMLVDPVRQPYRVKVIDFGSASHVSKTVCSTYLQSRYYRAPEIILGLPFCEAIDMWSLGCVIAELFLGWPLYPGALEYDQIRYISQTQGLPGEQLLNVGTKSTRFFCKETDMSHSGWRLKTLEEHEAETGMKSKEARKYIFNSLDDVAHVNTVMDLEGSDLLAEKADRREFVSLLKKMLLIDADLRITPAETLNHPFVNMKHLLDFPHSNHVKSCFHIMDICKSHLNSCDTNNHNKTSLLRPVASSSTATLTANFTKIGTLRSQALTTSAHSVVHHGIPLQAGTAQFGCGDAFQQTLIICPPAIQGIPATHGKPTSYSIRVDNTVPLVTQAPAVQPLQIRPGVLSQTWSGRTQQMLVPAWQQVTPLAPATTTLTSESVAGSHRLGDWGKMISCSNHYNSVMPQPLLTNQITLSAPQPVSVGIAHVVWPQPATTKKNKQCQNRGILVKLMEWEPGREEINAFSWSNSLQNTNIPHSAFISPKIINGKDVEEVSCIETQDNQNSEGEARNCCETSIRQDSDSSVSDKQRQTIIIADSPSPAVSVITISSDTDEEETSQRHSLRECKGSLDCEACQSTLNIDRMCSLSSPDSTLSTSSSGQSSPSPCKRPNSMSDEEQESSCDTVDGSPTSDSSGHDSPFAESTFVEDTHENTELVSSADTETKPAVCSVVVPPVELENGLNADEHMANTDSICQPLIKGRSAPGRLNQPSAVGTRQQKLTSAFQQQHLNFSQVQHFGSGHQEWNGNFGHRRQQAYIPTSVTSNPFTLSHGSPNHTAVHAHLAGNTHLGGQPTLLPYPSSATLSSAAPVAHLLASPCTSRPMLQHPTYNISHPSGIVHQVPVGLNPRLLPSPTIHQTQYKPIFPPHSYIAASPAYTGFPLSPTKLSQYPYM

[4] = target: Receptor-type tyrosine-protein kinase FLT3 (Homo sapiens) (UniProt P36888); test: Inhibition of human recombinant FLT3 at 40 nM in presence of ATP by radiometric assay relative to control
[5] = target: LIM domain kinase 1 (Homo sapiens) (UniProt P53667); test: Inhibition of human recombinant LIMK1 at 40 nM related to control ULK1
LIM domain kinase 1 (Homo sapiens), sequence (P53667 whole entry, looked up, the tested form may be a part): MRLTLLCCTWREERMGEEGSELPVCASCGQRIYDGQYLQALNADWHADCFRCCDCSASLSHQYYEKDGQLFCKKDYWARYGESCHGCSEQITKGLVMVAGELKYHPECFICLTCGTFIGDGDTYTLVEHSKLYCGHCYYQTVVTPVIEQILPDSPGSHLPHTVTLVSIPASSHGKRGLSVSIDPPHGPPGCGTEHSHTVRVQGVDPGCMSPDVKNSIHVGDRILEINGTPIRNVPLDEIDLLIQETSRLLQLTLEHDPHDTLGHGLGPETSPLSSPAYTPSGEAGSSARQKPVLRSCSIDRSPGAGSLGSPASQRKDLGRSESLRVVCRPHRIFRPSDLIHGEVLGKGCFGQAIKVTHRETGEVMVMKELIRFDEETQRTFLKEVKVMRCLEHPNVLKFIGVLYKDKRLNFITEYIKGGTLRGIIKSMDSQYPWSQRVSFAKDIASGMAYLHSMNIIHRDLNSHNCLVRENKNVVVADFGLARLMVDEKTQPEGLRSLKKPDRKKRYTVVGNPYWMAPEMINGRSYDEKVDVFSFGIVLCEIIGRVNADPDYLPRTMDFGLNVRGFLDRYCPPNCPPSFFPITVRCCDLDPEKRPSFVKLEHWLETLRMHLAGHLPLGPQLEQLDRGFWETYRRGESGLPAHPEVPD

[6] = target: PAS domain-containing serine/threonine-protein kinase (Homo sapiens) (UniProt Q96RG2); test: Inhibition of human recombinant PASK at 40 nM related to control ULK1
[7] = target: Tyrosine-protein kinase Tec (Homo sapiens) (UniProt P42680); test: Inhibition of human recombinant TEC at 40 nM related to control ULK1
Tyrosine-protein kinase Tec (Homo sapiens), sequence (P42680 whole entry, looked up): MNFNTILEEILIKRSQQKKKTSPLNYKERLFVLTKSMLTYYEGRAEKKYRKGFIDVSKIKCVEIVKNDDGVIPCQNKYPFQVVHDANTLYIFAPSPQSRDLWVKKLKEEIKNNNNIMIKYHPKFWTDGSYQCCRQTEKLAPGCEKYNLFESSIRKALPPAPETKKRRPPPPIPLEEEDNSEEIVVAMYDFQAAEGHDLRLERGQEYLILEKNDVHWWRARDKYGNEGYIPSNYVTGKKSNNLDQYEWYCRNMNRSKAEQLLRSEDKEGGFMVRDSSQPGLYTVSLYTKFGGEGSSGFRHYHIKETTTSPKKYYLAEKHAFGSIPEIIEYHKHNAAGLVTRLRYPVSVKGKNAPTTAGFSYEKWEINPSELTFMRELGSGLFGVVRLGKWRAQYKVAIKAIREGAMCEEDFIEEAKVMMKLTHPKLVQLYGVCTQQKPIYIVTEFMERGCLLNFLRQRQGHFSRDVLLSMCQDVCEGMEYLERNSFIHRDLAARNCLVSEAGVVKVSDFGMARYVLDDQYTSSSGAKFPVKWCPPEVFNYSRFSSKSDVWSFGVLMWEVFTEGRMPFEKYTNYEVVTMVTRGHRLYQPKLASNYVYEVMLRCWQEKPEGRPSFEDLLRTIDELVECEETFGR

[8] = target: Ephrin type-A receptor 2 (Homo sapiens) (UniProt P29317); test: Inhibition of human recombinant EphA2 at 500 nM in presence of ATP by radiometric assay relative to control
[9] = target: Casein kinase II subunit alpha' (Homo sapiens) (UniProt P19784); test: Inhibition of human recombinant CK2a2 at 500 nM related to control ULK1
Casein kinase II subunit alpha' (Homo sapiens), sequence (P19784 whole entry, looked up): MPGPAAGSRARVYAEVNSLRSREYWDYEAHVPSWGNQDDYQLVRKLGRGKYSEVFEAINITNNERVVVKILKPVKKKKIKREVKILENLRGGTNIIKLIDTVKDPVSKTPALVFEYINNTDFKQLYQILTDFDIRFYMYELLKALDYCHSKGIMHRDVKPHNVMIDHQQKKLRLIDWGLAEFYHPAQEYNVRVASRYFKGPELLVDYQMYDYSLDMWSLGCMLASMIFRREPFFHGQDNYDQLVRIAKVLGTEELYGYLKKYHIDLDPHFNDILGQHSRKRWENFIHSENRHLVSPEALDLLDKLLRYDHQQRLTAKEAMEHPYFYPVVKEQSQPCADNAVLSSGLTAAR

[10] = target: Receptor tyrosine-protein kinase erbB-2 (Homo sapiens) (UniProt P04626); test: Inhibition of human recombinant ErbB2 at 500 nM in presence of ATP by radiometric assay relative to control
[11] = target: Ephrin type-A receptor 7 (Homo sapiens) (UniProt Q15375); test: Inhibition of human recombinant EphA7 at 500 nM in presence of ATP by radiometric assay relative to control
[12] = target: Cyclin-dependent kinase 7 (Homo sapiens) (UniProt P50613); test: Inhibition of human recombinant CDK7 at 500 nM in presence of ATP by radiometric assay relative to control
Cyclin-dependent kinase 7 (Homo sapiens), sequence (P50613 whole entry): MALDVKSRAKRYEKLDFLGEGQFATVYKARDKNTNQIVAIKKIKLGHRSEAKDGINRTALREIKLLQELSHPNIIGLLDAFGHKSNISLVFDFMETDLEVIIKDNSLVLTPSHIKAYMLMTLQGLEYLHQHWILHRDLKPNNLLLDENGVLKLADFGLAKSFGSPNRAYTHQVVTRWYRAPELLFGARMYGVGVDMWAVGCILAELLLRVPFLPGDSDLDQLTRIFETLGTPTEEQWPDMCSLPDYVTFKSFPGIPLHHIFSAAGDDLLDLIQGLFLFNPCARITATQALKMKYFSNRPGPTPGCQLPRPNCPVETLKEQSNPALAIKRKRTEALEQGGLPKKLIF

[13] = target: Serine/threonine-protein kinase pim-2 (Homo sapiens) (UniProt Q9P1W9); test: Inhibition of human recombinant PIM2 at 15 nM in presence of ATP by radiometric assay relative to control
Serine/threonine-protein kinase pim-2 (Homo sapiens), sequence (Q9P1W9 whole entry, looked up): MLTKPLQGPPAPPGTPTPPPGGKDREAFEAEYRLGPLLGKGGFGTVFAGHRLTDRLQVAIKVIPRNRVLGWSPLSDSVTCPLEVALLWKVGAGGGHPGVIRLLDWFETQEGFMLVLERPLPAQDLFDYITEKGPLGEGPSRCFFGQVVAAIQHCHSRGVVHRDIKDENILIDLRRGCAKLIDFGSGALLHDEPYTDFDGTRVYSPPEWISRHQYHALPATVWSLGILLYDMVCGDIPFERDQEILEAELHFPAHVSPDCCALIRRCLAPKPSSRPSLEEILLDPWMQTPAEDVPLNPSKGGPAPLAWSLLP

[14] = target: Protein kinase C delta type (Homo sapiens) (UniProt Q05655); test: Inhibition of human recombinant PKCd at 15 nM in presence of ATP by radiometric assay relative to control
[15] = target: Calcium/calmodulin-dependent protein kinase kinase 2 (Homo sapiens) (UniProt Q96RR4); test: Inhibition of human recombinant CaMKK2 at 15 nM in presence of ATP by radiometric assay relative to control
[16] = target: T1, Serine/threonine-protein kinase Sgk3 (Homo sapiens) (UniProt Q96BR1); test: Inhibition of human recombinant SGK3 at 15 nM related to control ULK1
T1 sequence (whole entry): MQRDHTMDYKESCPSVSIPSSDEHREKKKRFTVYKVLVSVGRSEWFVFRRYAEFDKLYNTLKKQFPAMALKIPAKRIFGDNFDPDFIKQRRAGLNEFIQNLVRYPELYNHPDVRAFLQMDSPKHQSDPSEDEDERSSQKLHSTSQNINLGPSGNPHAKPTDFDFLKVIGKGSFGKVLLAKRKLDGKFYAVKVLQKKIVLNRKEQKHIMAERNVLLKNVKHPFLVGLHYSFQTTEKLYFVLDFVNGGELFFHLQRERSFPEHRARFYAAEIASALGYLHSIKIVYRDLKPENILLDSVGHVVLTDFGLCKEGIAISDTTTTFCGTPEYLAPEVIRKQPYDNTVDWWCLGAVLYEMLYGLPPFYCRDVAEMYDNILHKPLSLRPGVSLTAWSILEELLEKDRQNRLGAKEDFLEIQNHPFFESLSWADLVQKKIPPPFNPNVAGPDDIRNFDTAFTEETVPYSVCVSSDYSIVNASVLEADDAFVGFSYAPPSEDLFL

[17] = target: Cyclin-dependent kinase 2 (Homo sapiens) (UniProt P24941); test: Inhibition of human recombinant CDK2 at 15 nM in presence of ATP by radiometric assay relative to control
[18] = target: Serine/threonine-protein kinase WNK3 (Homo sapiens) (UniProt Q9BYP7); test: Inhibition of human recombinant Wnk3 at 15 nM related to control ULK1
[19] = target: Calcium/calmodulin-dependent protein kinase type II subunit delta (Homo sapiens) (UniProt Q13557); test: Inhibition of human recombinant CaMK2d at 15 nM in presence of ATP by radiometric assay relative to control
Calcium/calmodulin-dependent protein kinase type II subunit delta (Homo sapiens), sequence (Q13557 whole entry): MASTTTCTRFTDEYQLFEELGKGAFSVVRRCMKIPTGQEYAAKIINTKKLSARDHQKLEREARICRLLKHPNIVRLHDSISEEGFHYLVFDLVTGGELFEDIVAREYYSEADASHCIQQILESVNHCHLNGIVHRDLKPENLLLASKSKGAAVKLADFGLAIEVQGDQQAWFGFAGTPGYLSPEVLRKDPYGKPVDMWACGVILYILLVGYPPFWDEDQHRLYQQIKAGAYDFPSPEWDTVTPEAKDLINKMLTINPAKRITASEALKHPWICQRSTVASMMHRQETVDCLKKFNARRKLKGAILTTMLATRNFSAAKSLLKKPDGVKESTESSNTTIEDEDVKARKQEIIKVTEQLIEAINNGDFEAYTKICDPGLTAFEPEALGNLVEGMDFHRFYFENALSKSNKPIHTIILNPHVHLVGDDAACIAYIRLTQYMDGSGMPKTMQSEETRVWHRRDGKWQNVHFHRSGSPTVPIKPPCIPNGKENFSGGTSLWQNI

[20] = target: Protein kinase C iota type (Homo sapiens) (UniProt P41743); test: Inhibition of human recombinant PKCi at 15 nM in presence of ATP by radiometric assay relative to control
[21] = target: Tyrosine-protein kinase Fyn (Homo sapiens) (UniProt P06241); test: Inhibition of human recombinant FYN at 15 nM in presence of ATP by radiometric assay relative to control
[22] = target: Transient receptor potential cation channel subfamily M member 7 (Homo sapiens) (UniProt Q96QT4); test: Inhibition of human recombinant ChaK1 at 15 nM in presence of ATP by radiometric assay relative to control
[23] = target: Serine/threonine-protein kinase PAK 5 (Homo sapiens) (UniProt Q9P286); test: Inhibition of human recombinant PAK5 at 15 nM related to control ULK1

MAP kinase-activated protein kinase 3 (Homo sapiens), sequence (Q16644 whole entry, looked up): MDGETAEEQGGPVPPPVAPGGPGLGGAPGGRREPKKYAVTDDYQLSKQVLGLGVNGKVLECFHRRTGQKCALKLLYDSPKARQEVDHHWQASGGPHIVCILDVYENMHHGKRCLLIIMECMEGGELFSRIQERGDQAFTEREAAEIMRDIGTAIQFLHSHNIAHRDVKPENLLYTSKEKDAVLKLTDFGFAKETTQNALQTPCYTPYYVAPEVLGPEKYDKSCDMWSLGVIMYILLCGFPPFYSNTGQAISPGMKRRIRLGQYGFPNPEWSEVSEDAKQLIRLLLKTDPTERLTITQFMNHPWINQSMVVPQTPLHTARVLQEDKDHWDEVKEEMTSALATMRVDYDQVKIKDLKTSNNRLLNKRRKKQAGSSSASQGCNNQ

## O=C(N[C@@H](C1CC1)C(F)(F)F)c1cc(-c2cnn3cc(-c4ccc(F)cc4)cnc23)cs1
[1]
  inhibition: 0%
[2]
  fold change (FC): 0.26
[3]
  fold change (FC): 0.07
[4]
  inhibition: 19%
[5]
  fold change (FC): 0.21
[6]
  fold change (FC): 0.16
[7]
  fold change (FC): 0

## CNC(=O)c1ccccc1Oc1nc(Nc2cc(OC)c(OC)c(OC)c2)ncc1Br
[8]
  inhibition: 2%
[9]
  fold change (FC): 0.07
[10]
  inhibition: 0%
[11]
  inhibition: 0%
[12]
  inhibition: 29%

## CC(C)[C@H](NC(=O)c1cc(-c2cnn3cc(-c4ccc(OCCN5CCCCC5)cc4)cnc23)cs1)C(F)(F)F
[13]
  inhibition: 0%
[14]
  inhibition: 0%
[15]
  inhibition: 1%
[16]
  fold change (FC): 0.05
[17]
  inhibition: 1%
[18]
  fold change (FC): 0
[19]
  inhibition: 20%
[20]
  inhibition: 4%
[21]
  inhibition: 16%
[22]
  inhibition: 12%
[23]
  fold change (FC): 0
